| logP | Compound |
| --- | --- |
| 1.64 | CC(C)OC(=O)CS(=O)c1ccc([N+](=O)[O-])cc1 (configuration not stated) |
| 2.26 | COC(=O)CSc1ccc([N+](=O)[O-])cc1Cl |
| 1.72 | CC(C)OC(=O)CS(=O)(=O)c1ccccc1[N+](=O)[O-] |
| 1.35 | COC(=O)CS(=O)c1ccc([N+](=O)[O-])cc1Cl (configuration not stated) |
| 3.2 | CC(C)OC(=O)CSc1ccc([N+](=O)[O-])cc1Cl |
| 0.78 | COC(=O)CS(=O)(=O)c1ccccc1[N+](=O)[O-] |
| 1.8 | CC(C)OC(=O)CS(=O)(=O)c1ccc([N+](=O)[O-])cc1 |
| 2.81 | CC(C)OC(=O)CSc1ccc([N+](=O)[O-])cc1[N+](=O)[O-] |
| 0.63 | COC(=O)CS(=O)c1ccc([N+](=O)[O-])cc1[N+](=O)[O-] (configuration not stated) |
| 1.61 | CC(C)OC(=O)CS(=O)c1ccc([N+](=O)[O-])cc1[N+](=O)[O-] (configuration not stated) |
| 2.05 | COC(=O)CSc1ccc([N+](=O)[O-])cc1[N+](=O)[O-] |
| 2.4 | CC(C)OC(=O)CS(=O)(=O)c1ccc([N+](=O)[O-])cc1Cl |
| 2.79 | CC(C)OC(=O)CSc1ccc([N+](=O)[O-])cc1 |
| 1.29 | COC(=O)CS(=O)c1ccc(Cl)cc1[N+](=O)[O-] (configuration not stated) |
| 2.22 | CC(C)OC(=O)CS(=O)c1ccc(Cl)cc1[N+](=O)[O-] (configuration not stated) |
| 1.59 | CC(C)OC(=O)CS(=O)c1ccccc1[N+](=O)[O-] (configuration not stated) |
| 3 | CC(C)OC(=O)CSc1ccc(Cl)cc1[N+](=O)[O-] |
| 1.45 | COC(=O)CS(=O)(=O)c1ccc([N+](=O)[O-])cc1Cl |
| 0.8 | COC(=O)CS(=O)c1ccc([N+](=O)[O-])cc1 (configuration not stated) |
| 0.74 | COC(=O)CS(=O)c1ccccc1[N+](=O)[O-] (configuration not stated) |
| 1.3 | COC(=O)CS(=O)(=O)c1ccc(Cl)cc1[N+](=O)[O-] |
| 2.24 | COC(=O)CSc1ccc(Cl)cc1[N+](=O)[O-] |
| 2.01 | CC(C)OC(=O)CS(=O)c1ccc([N+](=O)[O-])cc1Cl (configuration not stated) |
| 2.45 | CC(C)OC(=O)CS(=O)(=O)c1ccc(Cl)cc1[N+](=O)[O-] |
| 1.88 | COC(=O)CSc1ccccc1[N+](=O)[O-] |
| 0.78 | COC(=O)CS(=O)(=O)c1ccc([N+](=O)[O-])cc1 |
| 2.76 | CC(C)OC(=O)CSc1ccccc1[N+](=O)[O-] |

From the OPERA property sets (Mansouri et al. 2018)
